Laboratory results published in paper PMC8851282, “Senolysis induced by 25-hydroxycholesterol targets CRYAB in multiple cell types” (iScience, 2022).

Experiments:
[1] = system: human articular chondrocytes (hAC); experiment: Cell viability assay of NS and Doxo- or IR-induced senescent hACs treated with 25HC; assay type: cell-based; settings: 11.1 μM after 12 days; Doxo or IR induced senescence
Procedure: Figure 7 25HC treatment timeline and its effects on NS and SEN hCMECs, hLSCs, hRPTECs, and hACs All cell types were treated with either DMSO, 250 nM Doxo or 10-Gy IR at the times shown. 25HC treatment was started 24 h after Doxo or IR treatment. Cell viability was measured every 3–5 days for 15 days. Optimal treatment times for maximum senolysis are shown for each cell type: day 15 for hCMECs, day 3 for hLSCs, day 9 for hRPTECs and day 12 for hACs. For qRT-PCR: mean ± SE, n =4, ∗p< 0.05, ∗∗p< 0.01, ∗∗∗p<0.001, ∗∗∗∗p<0.0001 by Dunnett’s multiple comparisons test vs DMSO or NS, For cell viability assays: mean ± SE, n =3, ∗∗p< 0.01, ∗∗∗p<0.001, ∗∗∗∗p<0.0001 vs 0 mM by student’s t test.
All experiments were performed in incubators at 37 °C, 3% O2 and 5% CO2. Senescence was induced by treatment with either Doxo (250 nM for 24 h) ([Demaria et al., 2017]) or X-irradiation (10 Gy) ([Limbad et al., 2020]). […]
Cell viability was assessed using a cell counting kit-8 from Dojindo Molecular Technologies, Inc (Cat CK04-20). […] The supernatant was transferred to a new 96-well plate and absorbance read at 450 nm as recommended in the product datasheet. […]
Cells were treated with DMSO or 250 nM Doxo for 24 h. […] Cell viability was measured every 3–5 days until 15 days. […] Cell viability was measured every 3–5 days until 15 days. […]

[2] = system: gastrocnemius muscle; settings: ip, 50 mg/kg, 120 h
[3] = system: human lung fibroblasts (IMR-90); experiment: Cell viability assay of NS and SEN IMR-90 cells treated with CRYAB and HMOX1 inhibitors; assay type: cell-based; settings: 250 nM Doxo-induced senescence; viability after 72 h; 25HC at 10 or 50 μM
Procedure: The average value of DMSO was set at 1. (B and D) Effects of CRYAB and HMOX1 inhibitors on DMSO-treated NS or Doxo-treated SEN cells; (B) mDFs, (D) IMR-90s. Cells were treated with the inhibitors at the indicated concentrations. Cell viability was measured after 72 h. (C) IMR-90 qRT-PCR. For qPCR: mean +/- SE, n =4, ∗p< 0.05, ∗∗p< 0.01, ∗∗∗p<0.001, ∗∗∗∗p<0.0001 by Dunnett’s multiple comparisons test vs DMSO. For cell viability assays: mean +/- SE, n =3, ∗∗p< 0.01, ∗∗∗p<0.001, ∗∗∗∗p<0.0001 vs 0 mM by student’s t test.
(§1) All experiments were performed in incubators at 37 °C, 3% O2 and 5% CO2. Senescence was induced by treatment with either Doxo (250 nM for 24 h) ([Demaria et al., 2017]) or X-irradiation (10 Gy) ([Limbad et al., 2020]). For cell culture studies using 25HC, it was used at the indicated concentrations in the media.
IMR-90 cells were cultured in DMEM with 10% FBS. […]
Cell viability was assessed using a cell counting kit-8 from Dojindo Molecular Technologies, Inc (Cat CK04-20). […] The supernatant was transferred to a new 96-well plate and absorbance read at 450 nm as recommended in the product datasheet.

[4] = system: human skeletal muscle myoblasts (HSMMs); experiment: Cell viability assay (cell counting kit-8) of senescent and non-senescent HSMMs treated with inhibitors; assay type: cell-based; settings: for IC50: Homo sapiens, Myoblast, HSMM
Procedure: Figure 3 25HC is a senolytic in multiple muscle cell types (A) Targets, compounds, and mechanisms. (B) Timeline of cell viability assay with inhibitors. Cells were pre-cultured for 24 h, treated with Doxo for 24 h, and then treated with inhibitors. Cell viability was analyzed from day 0–7. (C–E) Effects of inhibitors on viability of FAPs, SCs, and HSMMs. Cells were treated with inhibitors at the indicated concentrations. Cell viability was analyzed on day 3 (HSMMs) or 5 (FAPs and SCs). Blue and red dots indicate non-senescent (NS) and senescent (SEN), respectively. The average value at 0 μM for each group was set at 100% cell viability. p values versus NS were obtained using unpaired two-tailed Student’s t test. ∗p < 0.05, ∗∗p < 0.01, and ∗∗∗p < 0.001.
as §1
FAPs and SCs were cultured on Matrigel-coated dishes (BD Biosciences) in growth medium (GM) consisting of DMEM plus 10% FBS, 1% penicillin-streptomycin and 10% MyoCult (STEMCELL Technologies) for 7 days. Human myogenic cell HSMMs (Lonza) were maintained according to the manufacturer’s instructions with SkGM-2 medium (Lonza).
Cell viability was assessed using a cell counting kit-8 from Dojindo Molecular Technologies, Inc (Cat CK04-20). Cells were incubated with culture media + 10% kit cell viability reagent, 150 μL/well in 96-well plates for 2 h. The supernatant was transferred to a new 96-well plate and absorbance read at 450 nm as recommended in the product datasheet.

[5] = system: Cdkn1a mRNA and SASP factors in skeletal muscle; experiment: qRT-PCR of senescence markers, Cryab and SASP factors in skeletal muscles of aged mice given 25HC; assay type: in vivo, mouse
[6] = system: CRYAB; parameters: method as in Makley et al., 2015; settings: ref Makley et al., 2015; cited from earlier work

C[C@H](CCCC(C)(C)O)[C@H]1CC[C@H]2[C@@H]3CC=C4C[C@@H](O)CC[C@]4(C)[C@H]3CC[C@]12C [25HC, 25-hydroxycholesterol]
senolysis in hACs [1]: induced significant senolysis
muscle mass restored (gastrocnemius wet weight normalized to body weight) [2]: ~23%
senolysis in IMR-90 cells [3]: induced significant senolysis
viability of senescent versus non-senescent HSMMs ([4]; Doxo-induced senescence, viability on day 3): significantly decreased cell viability
IC50 ([4]; 72 h, 3 days in culture): 7.2 µM
IC50 ([4]; 168 h, 7 days in culture): 3.7 µM
Cdkn1a mRNA induction by aging in gastrocnemius and soleus muscles ([5]; 24–26-month-old mice, both genders, 25HC 50 mg/kg i.p. for 5 days): significantly reduced
expression of SASP factors, including IL6, in skeletal muscle ([5]; mice treated with 25HC (Figures S17 and S18)): substantially inhibited
CRYAB aggregation [6]: blocks CRYAB aggregation
